According to US20060241172A1, “Benzodioxane and benzodioxolane derivatives and uses thereof” (Wyeth, priority 2005, published 2006):

What was measured:
[1] = target: T1, human 5-hydroxytryptamine-2C (h5-HT2C) receptor (Homo sapiens, UniProt P28335); assay: 5-HT2C binding: [125I]DOI displacement in membranes of transfected CHO cells; details: read-out: 5-HT2C Binding Ki avg
T1 construct: expressed in transfected cells; host or cells: CHO (Chinese Hamster Ovary) cells; membranes
T1 sequence (P28335 33-458): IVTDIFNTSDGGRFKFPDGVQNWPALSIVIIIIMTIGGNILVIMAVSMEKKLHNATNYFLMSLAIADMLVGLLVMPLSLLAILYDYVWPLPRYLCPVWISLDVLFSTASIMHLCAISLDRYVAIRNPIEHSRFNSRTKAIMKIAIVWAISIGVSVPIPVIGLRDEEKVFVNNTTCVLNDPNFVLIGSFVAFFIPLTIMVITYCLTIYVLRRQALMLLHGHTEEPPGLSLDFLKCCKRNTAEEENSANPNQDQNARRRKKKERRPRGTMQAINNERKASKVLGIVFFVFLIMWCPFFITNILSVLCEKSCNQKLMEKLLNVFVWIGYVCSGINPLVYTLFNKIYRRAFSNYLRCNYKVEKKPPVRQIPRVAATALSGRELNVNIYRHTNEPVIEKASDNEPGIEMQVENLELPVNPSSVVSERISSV

human 5-HT2C receptor = target: T2, human 5-HT2C receptor (Homo sapiens, UniProt P28335); assay: 5-HT2C receptor-stimulated calcium mobilization (FLIPR) in CHO cells; type: cell-based; details: for Emax: CHO, read-out: 5-HT2C Function EMax (%); for EC50: read-out: 5-HT2C Function EC50
T2 sequence (P28335 33-458): T1 sequence (P28335 33-458)

SMILES | Ki [1] [nM] | Emax (human 5-HT2C receptor) [%] | EC50 (human 5-HT2C receptor) [nM]
NCC1Oc2cc(F)cc(-c3ccccc3Cl)c2O1 (stereo not drawn) [Compound I-84, 1-[4-(2-Chloro-phenyl)-6-fluoro-1,3-benzodioxol-2-yl]methanamine] | < 50 | 80 | < 100
Cc1ccccc1-c1cc(Cl)cc2c1O[C@@H](CN)CO2 [Compound I-60, (2S)-[6-Chloro-8-(2-methyl-phenyl)-2,3-dihydro-benzo[1,4]dioxin-2-yl]-methylamine] | < 50 | 50 | 100 to 500
Clc1ccc(-c2cccc3c2OC(CNC2CCC2)CO3)c(Cl)c1 (stereo not drawn) [Compound I-45, N-{[8-(2,4-Dichlorophenyl)-2,3-dihydro-1,4-benzodioxin-2-yl]methyl}cyclobutanamine] | > 200 | 30 | > 500
NC[C@H]1COc2cc(Cl)cc(-c3ccccc3Cl)c2O1 [Compound I-58, (2S)-[6-Chloro-8-(2-chloro-phenyl)-2,3-dihydro-benzo[1,4]dioxin-2-yl]-methylamine] | < 50 | 50 | < 100
COc1ccccc1-c1cccc2c1OC(CN)CO2 (stereo not drawn) [Compound I-5, {[8-(2-Methoxyphenyl)-2,3-dihydro-1,4-benzodioxin-2-yl]methyl}amine] | 50 to 200 | 60 | < 100
NC[C@H]1COc2cc(F)cc(-c3c(Cl)cccc3Cl)c2O1 [Compound I-47, {[(2S)-8-(2,6-Dichlorophenyl)-6-fluoro-2,3-dihydro-1,4-benzodioxin-2-yl]methyl}amine] | < 50 | 60 | < 100
COc1cccc(-c2cc(Cl)cc3c2O[C@@H](CN)CO3)c1OC [Compound I-63, (2S)-[6-Chloro-8-(2,3-dimethoxy-phenyl)-2,3-dihydro-benzo[1,4]dioxin-2-yl]-methyl amine] | < 50 | 50 | > 500
CNCC1COc2cccc(-c3cc(Cl)ccc3OC)c2O1 (stereo not drawn) [Compound I-31, {[8-(5-Chloro-2-methoxyphenyl)-2,3-dihydro-1,4-benzodioxin-2-yl]methyl}methylamine] | > 200 | 20 | 100 to 500
Cc1cccc(C)c1-c1cc(Cl)cc2c1O[C@@H](CN)CO2 [Compound I-69, (2S)-[6-Chloro-8-(2,6-dimethyl-phenyl)-2,3-dihydro-benzo[1,4]dioxin-2-yl]-methyl amine] | < 50 | 60 | 100 to 500
NCC1COc2cccc(-c3cc(F)ccc3F)c2O1 (stereo not drawn) [Compound I-15, {[8-(2,5-Difluorophenyl)-2,3-dihydro-1,4-benzodioxin-2-yl]methyl}amine] | < 50 | 60 | < 100
CC(C)NCC1COc2cccc(-c3ccccc3Cl)c2O1 (stereo not drawn) [Compound I-36, N-{[8-(2-Chlorophenyl)-2,3-dihydro-1,4-benzodioxin-2-yl]methyl}propan-2-amine] | > 200 |  | > 500
NCC1COc2cccc(-c3cccc(F)c3F)c2O1 (stereo not drawn) [Compound I-13, {[8-(2,3-Difluorophenyl)-2,3-dihydro-1,4-benzodioxin-2-yl]methyl}amine] | < 50 | 70 | < 100
NCC1Oc2cc(Cl)cc(-c3cc(Cl)ccc3Cl)c2O1 (stereo not drawn) [Compound I-98, [6-Chloro-4-(2,5-dichloro-phenyl)-benzo[1,3]dioxol-2-yl]-methylamine] | < 50 | 80 | < 100
CCNCC1COc2cccc(-c3ccc(Cl)cc3Cl)c2O1 (stereo not drawn) [Compound I-33, N-{[8-(2,4-Dichlorophenyl)-2,3-dihydro-1,4-benzodioxin-2-yl]methyl}ethanamine] | 50 to 200 | 30 | > 500
C[C@]1(CN)COc2cccc(-c3ccccc3Cl)c2O1 [Compound I-49, {[(2S)-8-(2-Chlorophenyl)-2-methyl-2,3-dihydro-1,4-benzodioxin-2-yl]methyl}amine] | < 50 | 70 | > 500
NC[C@H]1Oc2cc(F)cc(-c3c(Cl)cccc3Cl)c2O1 [Compound I-85, 1-[(2S)-4-(2,6-dichlorophenyl)-6-fluoro-1,3-benzodioxol-2-yl]methanamine] | < 50 | 90 | < 100
NCC1COc2cccc(-c3ccc(Cl)cc3Cl)c2O1 (stereo not drawn) [Compound I-7, {[8-(2,4-Dichlorophenyl)-2,3-dihydro-1,4-benzodioxin-2-yl]methyl}amine] | < 50 | 70 | < 100
NCC1COc2cccc(-c3cccc(Cl)c3Cl)c2O1 (stereo not drawn) [Compound I-6, {[8-(2,3-Dichlorophenyl)-2,3-dihydro-1,4-benzodioxin-2-yl]methyl}amine] | 50 to 200 | 70 | 100 to 500

SMILES | Ki [1] [nM] | Emax (human 5-HT2C receptor) [%] | EC50 (human 5-HT2C receptor) [nM]
NCC1COc2cccc(-c3ccccc3F)c2O1 (stereo not drawn) [Compound I-2, {[8-(2-Fluorophenyl)-2,3-dihydro-1,4-benzodioxin-2-yl]methyl}amine] | < 50 | 70 | < 100
Cc1cccc(-c2cccc3c2OC(CN)CO3)c1C (stereo not drawn) [Compound I-10, {[8-(2,3-Dimethylphenyl)-2,3-dihydro-1,4-benzodioxin-2-yl]methyl}amine] | > 200 | 50 | 100 to 500
NCC1Oc2cc(Cl)cc(-c3ccc(Cl)cc3Cl)c2O1 (stereo not drawn) [Compound I-96, [6-Chloro-4-(2,4-dichloro-phenyl)-benzo[1,3]dioxol-2-yl]-methylamine] | < 50 | 80 | < 100
Clc1ccccc1-c1cccc2c1OC(CNCC1CC1)CO2 (stereo not drawn) [Compound I-41, {[8-(2-Chlorophenyl)-2,3-dihydro-1,4-benzodioxin-2-yl]methyl}(cyclopropylmethyl)-amine] | 50 to 200 | 20 | > 500
COc1cccc(-c2cccc3c2OC(CN)CO3)c1OC (stereo not drawn) [Compound I-9, {[8-(2,3-Dimethoxyphenyl)-2,3-dihydro-1,4-benzodioxin-2-yl]methyl}amine] | < 50 | 50 | < 100
NC[C@H]1COc2cc(Cl)cc(-c3ccccc3C(F)(F)F)c2O1 [Compound I-62, (2S)-[6-Chloro-8-(2-trifluoromethyl-phenyl)-2,3-dihydro-benzo[1,4]dioxin-2-yl]-methylamine] | < 50 | 60 | 100 to 500
CNCC1COc2cccc(-c3cccc(OC)c3OC)c2O1 (stereo not drawn) [Compound I-30, {[8-(2,3-Dimethoxyphenyl)-2,3-dihydro-1,4-benzodioxin-2-yl]methyl}methylamine] | 50 to 200 |  | > 500
NC[C@H]1COc2cc(Cl)cc(-c3ccc(Cl)cc3Cl)c2O1 [Compound I-64, (2S)-[6-Chloro-8-(2,4-dichloro-phenyl)-2,3-dihydro-benzo[1,4]dioxin-2-yl]-methyl amine] | < 50 | 60 | 100 to 500
C=CCNCC1COc2cccc(-c3ccc(Cl)cc3Cl)c2O1 (stereo not drawn) [Compound I-40, N-{[8-(2,4-Dichlorophenyl)-2,3-dihydro-1,4-benzodioxin-2-yl]methyl}prop-2-en-1-amine] | > 200 | 30 | > 500
NC[C@H]1COc2cc(Cl)cc(-c3ccccc3F)c2O1 [Compound I-59, (2S)-[6-Chloro-8-(2-fluoro-phenyl)-2,3-dihydro-benzo[1,4]dioxin-2-yl]-methylamine] | < 50 | 40 | 100 to 500
Clc1ccccc1-c1cccc2c1OC(CNC1CC1)CO2 (stereo not drawn) [Compound I-43, N-{[8-(2-Chlorophenyl)-2,3-dihydro-1,4-benzodioxin-2yl]methyl}cyclopropanamine] | > 200 | 30 | > 500
Clc1ccc(-c2cccc3c2OC(CNC2CC2)CO3)c(Cl)c1 (stereo not drawn) [Compound I-44, N-{[8-(2,4-Dichlorophenyl)-2,3-dihydro-1,4-benzodioxin-2-yl]methyl}cyclopropanamine] | 50 to 200 |  | > 500
CNCC1COc2cccc(-c3ccccc3F)c2O1 (stereo not drawn) [Compound I-18, {[8-(2-Fluorophenyl)-2,3-dihydro-1,4-benzodioxin-2-yl]methyl}methylamine] | < 50 | 50 | < 100
CN(C)CC1COc2cccc(-c3ccccc3Cl)c2O1 (stereo not drawn) [Compound I-38, {[8-(2-Chlorophenyl)-2,3-dihydro-1,4-benzodioxin-2-yl]methyl}dimethylamine] | < 50 | 30 | 100 to 500
NC[C@H]1COc2ccc(F)c(-c3ccccc3Cl)c2O1 [Compound I-71, (2S)-[8-(2-Chloro-phenyl)-7-fluoro-2,3-dihydro-benzo[1,4]dioxin-2-yl]-methylamine] | < 50 | 40 | < 100
Cc1ccccc1-c1cc(Cl)cc2c1OC(CN)O2 (stereo not drawn) [Compound I-91, [6-Chloro-4-(2-methyl-phenyl)-benzo[1,3]dioxol-2-yl]-methylamine] | < 50 | 80 | < 100
Cc1ccccc1-c1cc(F)cc2c1OC(CN)O2 (stereo not drawn) [Compound I-80, 1-[4-(2-Methyl-phenyl)-6-fluoro-1,3-benzodioxol-2-yl]methanamine] | < 50 | 90 | < 100
